According to patent US7893256B2, “Azabicycloalkane compounds” (Theravance, Inc., priority 2003, dated 2011):

What was measured:
[1] = biological target: T1, M3 muscarinic receptor (hM3) (Homo sapiens, UniProt P20309); assay: Radioligand binding assay for muscarinic receptors (Assay Test Procedure B); details: radioligand displacement, CHO cell membranes, [3H]-NMS
T1 construct: expressed in transfected cells; membranes
Experimental: CHO cell lines stably expressing cloned human hM1, hM2, hM3 and hM4 muscarinic receptor subtypes, respectively, were grown to near confluency in HAM's F-12 media supplemented with 10% FBS and 250 μg/mL Geneticin. The cells were grown in a 5% CO2, 37° C. incubator and lifted with 2 mM EDTA in dPBS. Cells were collected by 5 minute centrifugation at 650×g, and cell pellets were either stored frozen at −80° C. or membranes were prepared immediately for use. For membrane preparation, cell pellets were resuspended in lysis buffer and homogenized with a Polytron PT-2100 tissue disrupter (Kinematica AG; 20 seconds×2 bursts). Crude membranes were centrifuged at 40,000×g for 15 minutes at 4° C. […] The protein concentration of the membrane suspension was determined by the method described in Lowry et al., 1951, Journal of Biochemistry, 193, 265. […]
Radioligand binding assays for cloned human muscarinic receptors were performed in 96-well microtiter plates in a total assay volume of 100 μL. […] Filter plates were rinsed three times with wash buffer (10 mM HEPES) to remove unbound radioactivity. […] The plates were then counted in a PerkinElmer Topcount liquid scintillation counter (PerkinElmer Inc., Wellesley, Mass.). Binding data were analyzed by nonlinear regression analysis with the GraphPad Prism Software package (GraphPad Software, Inc., San Diego, Calif.) using the one-site competition model. […]

[2] = biological target: T2, human β2 adrenergic receptor (Homo sapiens, UniProt P07550); assay: Whole-cell cAMP Flashplate assay in CHO cell lines heterologously expressing human β2 adrenergic receptor (Assay Test Procedure C); type: cell-based
T2 construct: expressed in transfected cells; membranes
Experimental: cAMP assays were performed in a radioimmunoassay format using the Flashplate Adenylyl Cyclase Activation Assay System with [^125I]-cAMP (NEN SMP004, PerkinElmer Life Sciences Inc., Boston, Mass.), according to the manufacturers instructions. For the determination of […] receptor agonist potency (EC50), CHO-K1 cell lines stably expressing cloned human β1, β2 or β3 adrenergic receptors were grown to near confluency in HAM's F-12 media supplemented with 10% FBS and Geneticin (250 μg/mL). Cells were rinsed with PBS and detached in dPBS (Dulbecco's Phosphate Buffered Saline, without CaCl2 and MgCl2) containing 2 mM EDTA or Trypsin-EDTA solution (0.05% trypsin/0.53 mM EDTA). After counting cells in Coulter cell counter, cells were pelleted by centrifugation at 1,000 rpm and re-suspended in stimulation buffer containing IBMX (PerkinElmer Kit) pre-warmed to room temperature to a concentration of 1.6×10^6 to 2.8×10^6 cells/mL. About 60,000 to 80,000 cells per well were used in this assay. […] The amount of cAMP produced (pmol/well) was calculated based on the counts observed for the samples and cAMP standards as described in the manufacturer's user manual. Data were analyzed by nonlinear regression analysis with the GraphPad Prism Software package (GraphPad Software, Inc., San Diego, Calif.) with the sigmoidal equation. […]

T2 sequence (P07550 whole entry): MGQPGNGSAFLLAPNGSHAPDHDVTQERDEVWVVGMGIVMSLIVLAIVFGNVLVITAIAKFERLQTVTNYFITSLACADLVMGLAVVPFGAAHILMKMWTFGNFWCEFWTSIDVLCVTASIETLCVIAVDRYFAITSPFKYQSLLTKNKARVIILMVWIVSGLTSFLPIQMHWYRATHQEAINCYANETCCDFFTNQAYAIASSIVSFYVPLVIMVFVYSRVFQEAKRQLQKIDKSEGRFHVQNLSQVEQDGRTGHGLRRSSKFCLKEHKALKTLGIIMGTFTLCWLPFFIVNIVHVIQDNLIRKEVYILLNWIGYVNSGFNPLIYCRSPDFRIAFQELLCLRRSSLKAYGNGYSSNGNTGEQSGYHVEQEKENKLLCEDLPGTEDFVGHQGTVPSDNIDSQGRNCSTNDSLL
T1 sequence (P20309 whole entry): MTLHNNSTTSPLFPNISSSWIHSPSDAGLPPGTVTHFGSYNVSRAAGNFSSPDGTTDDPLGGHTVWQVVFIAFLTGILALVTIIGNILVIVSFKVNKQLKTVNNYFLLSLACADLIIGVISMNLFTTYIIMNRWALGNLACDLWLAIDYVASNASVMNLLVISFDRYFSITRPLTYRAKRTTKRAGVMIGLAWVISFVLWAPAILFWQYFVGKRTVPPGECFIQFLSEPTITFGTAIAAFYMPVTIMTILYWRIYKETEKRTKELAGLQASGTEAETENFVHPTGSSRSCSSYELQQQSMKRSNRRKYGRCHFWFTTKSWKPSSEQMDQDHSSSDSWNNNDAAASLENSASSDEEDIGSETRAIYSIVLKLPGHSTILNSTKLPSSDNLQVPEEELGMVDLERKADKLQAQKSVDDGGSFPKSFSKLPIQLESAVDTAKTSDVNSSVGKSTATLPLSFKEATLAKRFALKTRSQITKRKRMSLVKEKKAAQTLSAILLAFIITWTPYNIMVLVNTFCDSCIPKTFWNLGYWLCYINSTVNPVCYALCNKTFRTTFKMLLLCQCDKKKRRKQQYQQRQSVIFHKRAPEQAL

With `C[N+]1(CCCCCCCCCNC[C@H](O)c2ccc(O)c3[nH]c(=O)ccc23)C2CC(OC(=O)C(O)(c3cccs3)c3cccs3)CC1C1OC12.C[N+]1(CCCCCCCCCNC[C@H](O)c2ccc(O)c3[nH]c(=O)ccc23)C2CC(OC(=O)C(O)(c3cccs3)c3cccs3)CC1C1OC12.O=C([O-])C(F)(F)F.O=C([O-])C(F)(F)F` (stereo partly drawn) [Example 1, 7-(2-Hydroxy-2,2-dithiophen-2-ylacetoxy)-9-{9-[(R)-2-hydroxy-2-(8-hydroxy-2-oxo-1,2-dihydroquinolin-5-yl)ethylamino]nonyl}-9-methyl-3-oxa-9-azonia-tricyclo[3.3.1.0^2,4]nonane Ditrifluoroacetate] the Ki [1] was under 50 nM, the EC50 ([2]; cAMP, CHO-K1 cells expressing cloned human β2 receptor) was under 10 nM and the “ratio of EC50(β1)/EC50(β2)” value ([2]; receptor subtype selectivity, functional, β2 over β1) was “greater than 10”.
